“And” between values parts separate entries of the source, which are not always exact repeats. Equal values may be shown once.
Experiments:
[1] = tested on: Chinese patients with T2D; assay: Mixed-meal tolerance test (MTT): plasma glucose and glucose AUC0-4 h; format: in vivo, human; details: for Percent change from baseline to week 12 in post-MTT glucose AUC0-4 h, LS mean: MMRM
Procedure: (§1) HbA1c (2200101, Bio-Rad, USA), blood glucose (05168791190, Roche Diagnostics, Germany), insulin (12017547122, Roche Diagnostics, Germany), C peptide (03184897190, Roche Diagnostics, Germany), total GLP-1 (GLP-1 [7–36] amide and its metabolite, GLP-1 [9–36] amide, 10-1278-01, Mercodia AB, Sweden) and OXM (AL-139, AnshLabs, USA) tests were performed according to the manufactures’ instruction manuals in a central laboratory (KingMed Diagnostics, Guangzhou, China). HbA1c was measured using a Bio-rad D-100 Haemoglobin Testing System (Bio-rad). Blood glucose was measured using a Roche Cobas c702 analyser (Roche Diagnostics). Insulin and C peptide were measured using a Roche […] analyser (Roche Diagnostics). GLP-1 and OXM were measured using a Tecan Infinite M Plex microplate reader (TECAN).
(§2) Standard non-compartmental pharmacokinetics methods were used to analyze IBI362 plasma concentration data using Pkanalix 2020R1 (Lixoft, Antony, France). Secondary efficacy outcomes included change from baseline to week 12 in HbA1c, fasting plasma glucose (FPG), fasting insulin levels, change from baseline to week 12 in post-mixed-meal tolerance test (post-MTT) glucose, insulin, C peptide, GLP-1 and OXM levels, as well as seven-point self-measured blood glucose (SMBG) profile.
The analyses for change from baseline in HbA1c, FPG, post-MTT glucose AUC0–4 h and body weight were performed using the mixed-effect model for repeated measures (MMRM) with least-squares means and standard error provided. The MMRM included the corresponding baseline value, treatment, visit and treatment-by-visit as fixed effects and patient as a random effect. Mean change or mean percent change from baseline were analysed using a restricted maximum likelihood (REML)‐based repeated measures approach in combination with the Newton Raphson Algorithm. The fix effect of visit was fitted as a repeated effect and an unstructured covariance matrix was used. In case of non-converge, matrix like Variance Components and Compound Symmetry will be tested in a subsequent order until model‐convergence is achieved. The Kenward-Roger degree of freedom was used in estimating fixed effects. No missing data imputation was conducted. For HbA1c, FPG and body weight, point estimate of treatment difference versus placebo and 90% CI were provided for each IBI362 dose group and the dulaglutide group, with nominal p values. […]
3. Standard meal test (MTT) collection measures included: insulin, C-peptide, plasma glucose, glucagon, endogenous OXM, and endogenous GLP-1. The sampling points include: fasting, 30 min, 1h, 2h, 3h and 4h.
A total of 9 mL blood will be collected from each blood collection point. See the manual of the central laboratory for the detailed operation process. Fasting state refers to fasting for 10 hours. [ The standard meal is
instant noodles. The master Kang roast beef noodles (bucket noodles) purchased by the sponsor in a unified manner are removed from the oil bag. The noodles are soaked in boiled water and then removed. The seasoning
bag is added and mixed well. The time is counted from the first bite of eating. The noodles are eaten within 10 minutes, and 200 mL of water is drunk; or the instant noodles are directly opened with 200 mL of boiled
water to ensure that the noodles are eaten and the water or soup is drunk]. Visit days when MTT test is performed: 1 day prior to Cycle 1 administration, Day 80 (D80). […]
● Test by central laboratory

[2] = tested on: Chinese patients with T2D; assay: Glycated haemoglobin A1c (HbA1c); format: in vivo, human; details: for Change from baseline to week 12 in HbA1c, single patients / HbA1c at week 12, single patients: each line a single patient; for Change from baseline in HbA1c, LS mean / Change from baseline in HbA1c, LS mean (SE) / HbA1c: ETD versus placebo, LS mean (90% CI): MMRM
Procedure: as §1, §2
The analyses for change from baseline in HbA1c, FPG, post-MTT glucose AUC0–4 h and body weight were performed using the mixed-effect model for repeated measures (MMRM) with least-squares means and standard error provided. The MMRM included the corresponding baseline value, treatment, visit and treatment-by-visit as fixed effects and patient as a random effect. Mean change or mean percent change from baseline were analysed using a restricted maximum likelihood (REML)‐based repeated measures approach in combination with the Newton Raphson Algorithm. The fix effect of visit was fitted as a repeated effect and an unstructured covariance matrix was used. In case of non-converge, matrix like Variance Components and Compound Symmetry will be tested in a subsequent order until model‐convergence is achieved. The Kenward-Roger degree of freedom was used in estimating fixed effects. No missing data imputation was conducted. For HbA1c, FPG and body weight, point estimate of treatment difference versus placebo and 90% CI were provided for each IBI362 dose group and the dulaglutide group, with nominal p values.

CC(C)C[C@H](NC(=O)[C@H](CC(C)C)NC(=O)[C@H](Cc1c[nH]c2ccccc12)NC(=O)[C@H](CCC(=O)O)NC(=O)[C@@H](NC(=O)[C@H](Cc1ccccc1)NC(=O)[C@H](CCC(=O)O)NC(=O)[C@H](CCCCNC(=O)COCCOCCNC(=O)COCCOCCNC(=O)CC[C@H](NC(=O)CCCCCCCCCCCCCCCCCCC(=O)O)C(=O)O)NC(=O)[C@H](C)NC(=O)[C@H](CCCCN)NC(=O)[C@H](CCCCN)NC(=O)[C@H](CCC(=O)O)NC(=O)[C@H](CC(=O)O)NC(=O)[C@H](CC(C)C)NC(=O)[C@H](Cc1ccc(O)cc1)NC(=O)[C@H](CCCCN)NC(=O)[C@H](CO)NC(=O)[C@H](Cc1ccc(O)cc1)NC(=O)[C@H](CC(=O)O)NC(=O)[C@H](CO)NC(=O)[C@@H](NC(=O)[C@H](Cc1ccccc1)NC(=O)[C@@H](NC(=O)CNC(=O)[C@H](CCC(N)=O)NC(=O)C(C)(C)NC(=O)[C@@H](N)Cc1c[nH]cn1)[C@@H](C)O)[C@@H](C)O)C(C)C)C(=O)N[C@@H](CCC(=O)O)C(=O)NCC(=O)NCC(=O)N1CCC[C@H]1C(=O)N[C@@H](CO)C(=O)N[C@@H](CO)C(=O)NCC(N)=O [IBI362]
Percent change from baseline to week 12 in post-MTT glucose AUC0-4 h, LS mean ([1]; 3.0 mg cohort, n=8): −37.0% and -36.99% | Percent change from baseline to week 12 in post-MTT glucose AUC0-4 h, LS mean ([1]; 4.5 mg cohort, n=8): −38.9% and -38.89% | Percent change from baseline to week 12 in post-MTT glucose AUC0-4 h, LS mean ([1]; 6.0 mg cohort, n=8): −43.9% and -43.88% | Glucose during MTT, mean ([1]; week 12, 0 min, 3.0 mg cohort, n=7): 7.91 mmol/L | Glucose during MTT, mean ([1]; week 12, 0 min, 4.5 mg cohort, n=5): 7.75 mmol/L | Glucose during MTT, mean ([1]; week 12, 0 min, 6.0 mg cohort, n=8): 7.11 mmol/L | Glucose during MTT, mean ([1]; week 12, 30 min, 3.0 mg cohort, n=7): 10.06 mmol/L | Glucose during MTT, mean ([1]; week 12, 30 min, 4.5 mg cohort, n=5): 9.84 mmol/L | Glucose during MTT, mean ([1]; week 12, 30 min, 6.0 mg cohort, n=8): 9.53 mmol/L | Glucose during MTT, mean ([1]; week 12, 60 min, 3.0 mg cohort, n=7): 13.39 mmol/L | Glucose during MTT, mean ([1]; week 12, 60 min, 4.5 mg cohort, n=5): 11.82 mmol/L | Glucose during MTT, mean ([1]; week 12, 60 min, 6.0 mg cohort, n=8): 11.83 mmol/L | Glucose during MTT, mean ([1]; week 12, 120 min, 3.0 mg cohort, n=7): 11.24 mmol/L | Glucose during MTT, mean ([1]; week 12, 120 min, 4.5 mg cohort, n=5): 10.28 mmol/L | Glucose during MTT, mean ([1]; week 12, 120 min, 6.0 mg cohort, n=8): 9.52 mmol/L | Glucose during MTT, mean ([1]; week 12, 180 min, 3.0 mg cohort, n=7): 8.73 mmol/L | Glucose during MTT, mean ([1]; week 12, 180 min, 4.5 mg cohort, n=5): 8.34 mmol/L | Glucose during MTT, mean ([1]; week 12, 180 min, 6.0 mg cohort, n=8): 7.51 mmol/L | Glucose during MTT, mean ([1]; week 12, 240 min, 3.0 mg cohort, n=7): 7.23 mmol/L | Glucose during MTT, mean ([1]; week 12, 240 min, 4.5 mg cohort, n=5): 7.08 mmol/L | Glucose during MTT, mean ([1]; week 12, 240 min, 6.0 mg cohort, n=8): 6.63 mmol/L | Percent of patients with change from baseline to week 12 in HbA1c <1.0% ([2]; 3.0 mg cohort, n=8): 0.0% | Percent of patients with change from baseline to week 12 in HbA1c ≥1.0% and <1.5% ([2]; 3.0 mg cohort, n=8): 37.5% | Percent of patients with change from baseline to week 12 in HbA1c ≥1.5% and <2.0% ([2]; 3.0 mg cohort, n=8): 25.0% | Percent of patients with change from baseline to week 12 in HbA1c ≥2.0% ([2]; 3.0 mg cohort, n=8): 25.0% | Percent of patients with change from baseline to week 12 in HbA1c <1.0% ([2]; 4.5 mg cohort, n=8): 0.0% | Percent of patients with change from baseline to week 12 in HbA1c ≥1.0% and <1.5% ([2]; 4.5 mg cohort, n=8): 12.5% | Percent of patients with change from baseline to week 12 in HbA1c ≥1.5% and <2.0% ([2]; 4.5 mg cohort, n=8): 25.0% | Percent of patients with change from baseline to week 12 in HbA1c ≥2.0% ([2]; 4.5 mg cohort, n=8): 37.5% | Percent of patients with change from baseline to week 12 in HbA1c <1.0% ([2]; 6.0 mg cohort, n=8): 25.0% | Percent of patients with change from baseline to week 12 in HbA1c ≥1.0% and <1.5% ([2]; 6.0 mg cohort, n=8): 0.0% | Percent of patients with change from baseline to week 12 in HbA1c ≥1.5% and <2.0% ([2]; 6.0 mg cohort, n=8): 37.5% | Percent of patients with change from baseline to week 12 in HbA1c ≥2.0% ([2]; 6.0 mg cohort, n=8): 37.5% | Percent of patients with change from baseline to week 12 in HbA1c <1.0% ([2]; all IBI362 cohorts, n=24): 8.3% | Percent of patients with change from baseline to week 12 in HbA1c ≥1.0% and <1.5% ([2]; all IBI362 cohorts, n=24): 16.7% | Percent of patients with change from baseline to week 12 in HbA1c ≥1.5% and <2.0% ([2]; all IBI362 cohorts, n=24): 29.2% | Percent of patients with change from baseline to week 12 in HbA1c ≥2.0% ([2]; all IBI362 cohorts, n=24): 33.3% | Change from baseline to week 12 in HbA1c, single patients ([2]; 3.0 mg cohort): -2.8% and -1.4% and -1.0% and -1.9% and -1.8% and -2.7% and -1.3% | HbA1c at week 12, single patients ([2]; 3.0 mg cohort): 6.4% and 6.1% and 8.6% and 7.3% and 6.8% and 6.7% and 7.4% | Change from baseline to week 12 in HbA1c, single patients ([2]; 4.5 mg cohort): -1.2% and -1.7% and -2.3% and -3.3% and -3.7% | HbA1c at week 12, single patients ([2]; 4.5 mg cohort): 6.1% and 6.3% and 5.7% and 6.9% and 6.8% and 6.0% | HbA1c at week 12, single patients ([2]; 6.0 mg cohort): 7.0% and 6.8% and 5.9% and 6.1% and 7.1% and 5.8% and 7.8% | Change from baseline in HbA1c, LS mean ([2]; week 4, 3.0 mg cohort, n=8): -0.38% | Change from baseline in HbA1c, LS mean ([2]; week 4, 4.5 mg cohort, n=8): -0.80% | Change from baseline in HbA1c, LS mean ([2]; week 4, 6.0 mg cohort, n=8): -0.61% | Change from baseline in HbA1c, LS mean ([2]; week 8, 3.0 mg cohort, n=8): -0.98% | Change from baseline in HbA1c, LS mean ([2]; week 8, 4.5 mg cohort, n=8): -1.58% | Change from baseline in HbA1c, LS mean ([2]; week 8, 6.0 mg cohort, n=8): -1.32% | Change from baseline in HbA1c, LS mean (SE) ([2]; week 12, 3.0 mg cohort, n=8): -1.46% | HbA1c: ETD versus placebo, LS mean (90% CI) ([2]; week 12, 3.0 mg cohort): −0.59% | Change from baseline in HbA1c, LS mean (SE) ([2]; week 12, 4.5 mg cohort, n=8): -2.23% | HbA1c: ETD versus placebo, LS mean (90% CI) ([2]; week 12, 4.5 mg cohort): −1.35% | Change from baseline in HbA1c, LS mean (SE) ([2]; week 12, 6.0 mg cohort, n=8): -1.66% | HbA1c: ETD versus placebo, LS mean (90% CI) ([2]; week 12, 6.0 mg cohort): −0.79% | patients achieving HbA1c level of 6.5% or lower ([2]; week 12, all IBI362 cohorts): nine | patients achieving ≥1.5% reductions in HbA1c from baseline ([2]; week 12, all IBI362 cohorts, n=24): 62.5%
